Data published in patent US20080139623A1, “Amorphous and crystalline forms of pantoprazole magnesium salt” (priority 2006, published 2008).

Key:
Format in all cases: physicochemical
[1] = Solubility in water at 25° C. (saturated solution, HPLC assay); details: for solubility: in water at 25° C.
Description: The solubilities of amorphous pantoprazole magnesium and pantoprazole magnesium Form A were each measured in water at 25° C. The certain amount of amorphous sample and form A sample were added each to 50 ml of distillated water. The solutions were kept saturated during the experiment. The aliquots were taken, filtered and injected into HPLC by the method of assay determination for PNT-Mg and the concentrations were calculated by comparison of absorptions at certain wavelength against the known concentration of PNT-Mg standard.

[2] = Stability of crystalline form under heating (100° C., two weeks, PXRD); details: heated at 100° C. for two weeks, analyzed by PXRD
Description: The powder X-ray diffraction was performed on Scintag X-ray powder diffractometer model X'TRA with a solid state detector. Copper radiation of 1.5418 Å was used. The sample holder was a round standard aluminum sample holder with rough zero background. The scanning parameters were range: 2-40 degrees two-theta; scan mode: continuous scan; step size: 0.05 deg.; and at a rate of 5 deg/min.
Samples of crystalline pantoprazole magnesium Form C and Form A (prepared according to example 15) were each heated at 100° C. for two weeks. The samples were then analyzed by PXRD.

[3] = Analysis of particle size by light microscope in light oil
Description: Samples of crystalline pantoprazole magnesium Forms A (prepared according to example 15), E, F, G, and H were each analyzed by light microscope in light oil. The results are depicted in FIGS. 29-33, respectively.

**Q.** Which results are given for “5-difluoromethoxy-2-[[3,4-dimethoxy-2-pyridinyl)methyl]sulfinyl]-1H-benzimidazole magnesium salt [Form A, reference compound]”?
**A.** solubility [1]: about 0.2 mg/ml; crystalline form after heating (polymorphic stability) [2]: transformed to amorphous form; particle shape / description [3]: plate-shaped particles; particle size [3]: less than 50 microns

**Q.** For “5-difluoromethoxy-2-[[3,4-dimethoxy-2-pyridinyl)methyl]sulfinyl]-1H-benzimidazole magnesium salt [Form G]”, which particle size [3] is on record?
**A.** Its particle size is “less than 10 microns”.

**Q.** For “5-difluoromethoxy-2-[[3,4-dimethoxy-2-pyridinyl)methyl]sulfinyl]-1H-benzimidazole magnesium salt [Form C]”, which “crystalline form after heating (polymorphic stability)” value [2] is on record?
**A.** Its value is “maintained its crystalline form”.

**Q.** For “5-difluoromethoxy-2-[[3,4-dimethoxy-2-pyridinyl)methyl]sulfinyl]-1H-benzimidazole magnesium salt [Form H]”, which “particle shape / description” value [3] is on record?
**A.** The value was “very small particles”.

**Q.** Which “particle shape / description” value [3] does the source give for “5-difluoromethoxy-2-[[3,4-dimethoxy-2-pyridinyl)methyl]sulfinyl]-1H-benzimidazole magnesium salt [Form E]” here?
**A.** The value was “plate-shaped particles”.

**Q.** And the particle size [3]?
**A.** The particle size was “less than 20 microns”.

**Q.** For “5-difluoromethoxy-2-[[3,4-dimethoxy-2-pyridinyl)methyl]sulfinyl]-1H-benzimidazole magnesium salt [amorphous pantoprazole magnesium]”, which solubility [1] is on record?
**A.** The solubility was “about 1.3 mg/ml”.

**Q.** What about the “solubility in water relative to crystalline Form A” value ([1]; in water, amorphous form versus Form A prepared according to the '464 patent) of the same substance?
**A.** The value was “approximately 6.5 times”.

**Q.** With “5-difluoromethoxy-2-[[3,4-dimethoxy-2-pyridinyl)methyl]sulfinyl]-1H-benzimidazole magnesium salt [Form F]” as the substance, how does the “particle shape / description” value [3] read?
**A.** Its value is “spherical particles”.
